PMC10714400, “Antimicrobial Peptide–Peptoid Hybrids with and without Membrane Disruption” (ACS Infectious Diseases, 2023)
≈ marks a conversion by molar mass, not a printed value. Where two headings read alike, the source gives them in different places. Where a SMILES comes first, the peptide text is derived from it. [ ]: non-standard residue; d: D form. Nleu = CC(C)CNCC(=O)O; Nlys = NCCCCNCC(=O)O

Legend:
[1] = tested on: human red blood cells (hRBC); assay: Minimum hemolytic concentration (MHC); assay type: cell-based
Description: We also measured minimal hemolysis concentrations (MHC) on human red blood cells by serial 2-fold dilution as an indication of toxicity against eukaryotic cells (Table 1).

[2] = tested on: ZEM-1A (clinical MDR P. aeruginosa isolate)
Summary of the method: (§1)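 MIC read visually after MTT staining: lowest compound concentration preventing visible growth (yellow wells). Inoculum ~5 × 10^5 CFU per well in MH broth; static incubation at 37 °C for ca. 18 h.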

[3] = tested on: ZEM9A (clinical MDR P. aeruginosa isolate)
Summary of the method: as §1

E. coli W3110 = tested on: E. coli W3110
Summary of the method: as §1

E. cloacae = details: pH 7.4
Summary of the method: as §1

PA14 4.13 (phoQ) = tested on: PA14 4.13 (phoQ)
Summary of the method: as §1

K. pneumoniae OXA-48 = tested on: K. pneumoniae OXA-48
Summary of the method: as §1

PA14 2P4 (pmrB) = tested on: PA14 2P4 (pmrB)
Summary of the method: as §1

S. aureus COL (MRSA) = tested on: S. aureus COL (MRSA)
Summary of the method: as §1

[4] = Circular dichroism, α-helical content; assay type: physicochemical; details: 0.1 mg/mL; for CD %α with 5 mM DPC: 10 mM phosphate buffer pH 7.4, 5 mM DPC; for CD %α with 20% TFE: 10 mM phosphate buffer pH 7.4, 20% TFE
S. epidermis = details: pH 7.4
Summary of the method: as §1

P. aeruginosa PA14 = tested on: P. aeruginosa PA14
Summary of the method: as §1

S. maltophilia = details: pH 7.4
Summary of the method: as §1

S. aureus Newman = details: Newman
Summary of the method: as §1

B. cenocepacia = details: pH 7.4
Summary of the method: as §1

HEK293 cells = assay: Cell viability assay by Alamar blue; details: read-out: Toxicity on HEK293 cells; CSV
Experimental: The data are represented as the mean value ± SD, n = 3. […] (c) Vesicle leakage assay for a selection of compounds. Lipid vesicles made of EYPG or EYPC were suspended in a buffer (10 mM TRIS, 107 mM NaCl, pH 7.4). After 45 s, the indicated compound was added to reach the desired concentration. After 240 s, 30 μL of 1.2% TritonX-100 was added for full fluorescein release. […] See Supporting Information for the full curves, all of the data, and procedures.
HEK293 cells were cultured and maintained in DMEM high glucose (Dulbecco’s modified Eagle medium, Sigma Aldrich) medium supplemented with 10% FBS (Sigma Aldrich) and 1% penicillin/streptomycin. A549 cells were cultured and maintained in RPMI-1640 medium (Sigma Aldrich), supplemented with 10% FBS (Sigma Aldrich) and 1% penicillin/streptomycin. The cells were handled and subcultured according to the manufacturer instructions. Cells were incubated in a humidified incubator at 37 °C in the presence of 5% CO2.
Assays on HEK293, A549 cells were performed as described earlier.[74] […]

CC(C)C[C@H](NC(=O)[C@H](CCCCN)NC(=O)CNCCCCN)C(=O)N[C@@H](CC(C)C)C(=O)N[C@@H](CCCCN)C(=O)N[C@@H](CC(C)C)C(=O)N[C@@H](CC(C)C)C(=O)N[C@@H](CCCCN)C(=O)N[C@@H](CC(C)C)C(=O)N[C@@H](CC(C)C)C(=O)N(CC(N)=O)CC(C)C [EB1] (H-[Nlys]KLLKLLKLL[Nleu]-NH2; N-terminus assumed)
MHC [1]: 1000 µg/mL
MHC (hemolysis) ([1]; red cells of human): 250 to 1000 µg/mL
MIC P. aeruginosa ZEM-1A, full MH at pH 7.4 ([2]; CSV, full MH at pH 7.4): 3 ug/mL
MIC ZEM-1A ([2]; MH pH 7.4, 16–20 h at 37 °C): 2 to 4 µg/mL
MIC P. aeruginosa ZEM9A, full MH at pH 7.4 ([3]; CSV, full MH at pH 7.4): 16 ug/mL
MIC ZEM9A ([3]; MH pH 7.4, 16–20 h at 37 °C): 16 µg/mL (≈ 12.1 µM)
MIC E. coli W3110, […] MH at pH 7.4 (E. coli W3110; CSV, […] MH at pH 7.4): 2 ug/mL
MIC E. coli W3110, full MH at pH 7.4 (E. coli W3110; CSV, full MH at pH 7.4): 2 ug/mL
MIC E. coli W3110 […] 7.4 (E. coli W3110; Table S2, […] MH, pH 7.4): 2 µg/mL (≈ 1.51 µM)
MIC E. coli W3110 […] 8.5 (E. coli W3110; Table S2, […] MH, pH 8.5): 1 µg/mL (≈ 0.757 µM)
MIC E. coli W3110 Full MH 7.4 (E. coli W3110; Table S2, full MH, pH 7.4): 2 µg/mL (≈ 1.51 µM)
MIC E. coli W3110 Full MH 8.5 (E. coli W3110; Table S2, full MH, pH 8.5): 32 µg/mL (≈ 24.2 µM)
MIC E. coli W3110 […] (E. coli W3110; diluted MH ([…] MH, pH 8.5) per Table 1 footnote b, 16–20 h at 37 °C): 2 µg/mL (≈ 1.51 µM)
MIC E. cloacae, full MH at pH 7.4 (E. cloacae; 4 h): 8 ug/mL
MIC E. cloacae (E. cloacae): 8 µg/mL (≈ 6.05 µM)
MIC P. aeruginosa PA14 4.13, […] MH at pH 8.5 (PA14 4.13 (phoQ); CSV, […] MH at pH 8.5): 2 ug/mL
MIC P. aeruginosa PA14 4.13, full MH at pH 7.4 (PA14 4.13 (phoQ); CSV, full MH at pH 7.4): 8 ug/mL
MIC PA14 4.13 (phoQ) (PA14 4.13 (phoQ); MH pH 7.4, 16–20 h at 37 °C): 8 µg/mL (≈ 6.05 µM)
MIC P. aeruginosa PA14 4.13 (PA14 4.13 (phoQ); Table S3, […] MH at pH 8.5): 2 µg/mL (≈ 1.51 µM)
MIC K. pneumoniae OXA-48, full MH at pH 7.4 (K. pneumoniae OXA-48; CSV, full MH at pH 7.4): 12 ug/mL
MIC K. pneumoniae OXA-48 (K. pneumoniae OXA-48; MH pH 7.4, 16–20 h at 37 °C): 8 to 16 µg/mL
MIC P. aeruginosa PA14 2P4, […] MH at pH 8.5 (PA14 2P4 (pmrB); CSV, […] MH at pH 8.5): 2 ug/mL
MIC P. aeruginosa PA14 2P4, full MH at pH 7.4 (PA14 2P4 (pmrB); CSV, full MH at pH 7.4): 32 ug/mL
MIC PA14 2P4 (pmrB) (PA14 2P4 (pmrB); MH pH 7.4, 16–20 h at 37 °C): 32 µg/mL (≈ 24.2 µM)
MIC P. aeruginosa PA14 2P4 (PA14 2P4 (pmrB); Table S3, […] MH at pH 8.5): 2 µg/mL (≈ 1.51 µM)
MIC S. aureus COL (MRSA) Full (S. aureus COL (MRSA); COL, pH 7.4): 8 µg/mL (≈ 6.05 µM)
MIC S. aureus COL (MRSA) […] 7.4 (S. aureus COL (MRSA); Table S2, […] MH, pH 7.4): 2 µg/mL (≈ 1.51 µM)
MIC S. aureus COL (MRSA) […] 8.5 (S. aureus COL (MRSA); Table S2, […] MH, pH 8.5): 2 µg/mL (≈ 1.51 µM)
MIC S. aureus COL (MRSA) Full MH 7.4 (S. aureus COL (MRSA); Table S2, full MH, pH 7.4): 8/32
MIC S. aureus COL (MRSA) Full MH 8.5 (S. aureus COL (MRSA); Table S2, full MH, pH 8.5): 32 µg/mL (≈ 24.2 µM)
CD %α with 5 mM DPC ([4]; DichroWeb, Contin-LL): 30%
CD %α with 20% TFE ([4]; DichroWeb, Contin-LL): 26%
CD %α with 5 mM DPC ([4]; Table S2): 30%
CD %α with 20% TFE ([4]; Table S2): 26%
MIC S. epidermis, full MH at pH 7.4 (S. epidermis; 4 h): 6 ug/mL
MIC S. epidermis (S. epidermis): 4 to 8 µg/mL
MIC P. aeruginosa PA14, full MH at pH 7.4 (P. aeruginosa PA14; PA14, 4 h, pH 7.4): 4 ug/mL
MIC P. aeruginosa PA14 (P. aeruginosa PA14; PA14, pH 7.4): 4 µg/mL (≈ 3.03 µM)
MIC P. aeruginosa PA14 (P. aeruginosa PA14; PA14, pH 8.5): 2 µg/mL (≈ 1.51 µM)
MIC S. maltophilia, full MH at pH 7.4 (S. maltophilia; 4 h): 3 ug/mL
MIC S. maltophilia (S. maltophilia): 2 to 4 µg/mL
MIC S. aureus Newman, full MH at pH 7.4 (S. aureus Newman; 4 h, pH 7.4): 32 ug/mL
MIC S. aureus Newman (S. aureus Newman; 4 h, pH 8.5): 2 µg/mL (≈ 1.51 µM)
MIC S. aureus Newman (S. aureus Newman; pH 7.4): 32 µg/mL (≈ 24.2 µM)
MIC B. cenocepacia, full MH at pH 7.4 (B. cenocepacia; 4 h): >32 ug/mL
MIC B. cenocepacia (B. cenocepacia): >32 µg/mL
IC50 (HEK293 cells): 110 ± 6 µM
